The target in experiment [1] is T1, N. fowleri peptidylprolyl isomerase (NfPPI) (Naegleria fowleri, UniProt A0A2H4A315).
T1 construct: gene NF0084240; N-terminal His tag (vector pBG1861), E. coli BL21(DE3)R3 Rosetta; 119 residues; FKBP family; chains A-D in crystal
T1 sequence (A0A2H4A315 1-119): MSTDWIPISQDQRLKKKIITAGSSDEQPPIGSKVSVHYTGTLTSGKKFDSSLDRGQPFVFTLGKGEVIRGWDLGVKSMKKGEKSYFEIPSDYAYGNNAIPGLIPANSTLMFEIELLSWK
In words: X-ray crystal structure. The class given is binding. As to conditions: active site; Fig 4C legend calls the 6MKE ligand FK506-AN.

In experiment [2] the target is T2, N. fowleri S-adenosyl-L-homocysteine hydrolase (NfSAHH) (Naegleria fowleri, UniProt A0A1Z0YU84).
T2 construct: gene NF0035640; N-terminal His tag (vector pBG1861), E. coli BL21(DE3)R3 Rosetta; 472 residues; homo-tetramer in asymmetric unit
T2 sequence (A0A1Z0YU84 1-472): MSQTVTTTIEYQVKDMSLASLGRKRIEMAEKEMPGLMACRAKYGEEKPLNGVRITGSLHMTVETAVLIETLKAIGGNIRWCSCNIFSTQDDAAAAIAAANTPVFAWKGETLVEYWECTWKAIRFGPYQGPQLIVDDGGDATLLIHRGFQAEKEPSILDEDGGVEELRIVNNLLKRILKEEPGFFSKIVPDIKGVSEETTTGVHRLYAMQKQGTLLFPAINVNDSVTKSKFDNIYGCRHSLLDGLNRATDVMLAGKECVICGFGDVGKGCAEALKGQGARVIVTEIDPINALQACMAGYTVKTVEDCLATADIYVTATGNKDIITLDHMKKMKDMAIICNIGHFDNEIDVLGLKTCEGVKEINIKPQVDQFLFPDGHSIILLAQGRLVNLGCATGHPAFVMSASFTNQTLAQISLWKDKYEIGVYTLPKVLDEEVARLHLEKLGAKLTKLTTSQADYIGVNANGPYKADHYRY
Description: X-ray crystal structure. The class given is binding.

Regarding `C=CC[C@@H]1/C=C(\C)C[C@H](C)C[C@H](OC)[C@H]2O[C@@](O)(C(=O)C(=O)N3CCCC[C@H]3C(=O)O[C@H](/C(C)=C/[C@@H]3CC[C@@H](O)[C@H](OC)C3)[C@H](C)[C@@H](O)CC1=O)[C@H](C)C[C@@H]2OC` [FK506], the X-ray crystal structure entry in experiment [1] is “Quaternary structure of NfPPI (6MKE)”. For `NC(=O)c1ccc[n+]([C@@H]2O[C@H](COP(=O)(O)OP(=O)(O)OC[C@H]3O[C@@H](n4cnc5c(N)ncnc54)[C@H](O)[C@@H]3O)[C@@H](O)[C@H]2O)c1` [NAD], the X-ray crystal structure entry in experiment [2] (with adenosine, 2.0 Å omit map shown) was “contains the adenosine substrate and NAD cofactors bound to the active site”.

`Nc1ncnc2c1ncn2[C@@H]1O[C@H](CO)[C@@H](O)[C@H]1O` [adenosine]: in experiment [2] (with NAD, active site, closed conformation), the X-ray crystal structure result is “contains the adenosine substrate and NAD cofactors bound to the active site”.
